# Experimental data: patent US20230248797A1, “Method for preparing medicine with Chinese yam protein extract for treating erectile dysfunction” (priority 2020, published 2023)
# Columns and labels:
# [1] = system: mice with oligoasthenospermia induced by tripterygium glycosides; conditions: cited from earlier work
# TM3 cells = assay: CCK8 cell viability of H2O2 damaged TM3 cells; type: cell-based, mouse; conditions: inhibitor pretreated 1 h, then 62.5 μg/mL CYCSE 24 h, 0.4 mM H2O2 2 h
# Experimental: TM3 cells: purchased from Shanghai Cell Bank of the Chinese Academy of Sciences. The culture conditions are DMEM/F12+5% horse serum+2.5% fetal bovine serum+1% penicillin-streptomycin, 37° C., 5% CO2 incubator. TM3 cells were placed in a 96-well plate at a density of 3×10^4 cells/mL and divided into 6 groups: control group, H2O2 group, CYCSE group, ERK inhibitor ([…] group, AKT inhibitor ([…] group, and sildenafil group. After the two inhibitors were pretreated for 1 […] was added and processed for 24 h, and 0.4 mM H2O2 was added and processed for 2 h. After the two kinds of cells were treated separately, CCK8 was added and incubated at 37° C. for 1 h. A microplate reader was used to measure absorbance at 450 nm and calculate the cell viability.
# [2] = system: ERK and AKT signal pathways in TM3 cells; assay: Western blot of p-ERK/ERK and p-AKT/AKT in TM3 cells; type: cell-based, mouse; conditions: H2O2 damaged TM3 cells
# Experimental: TM3 cells: purchased from Shanghai Cell Bank of the Chinese Academy of Sciences. The culture conditions are DMEM/F12+5% horse serum+2.5% fetal bovine serum+1% penicillin-streptomycin, 37° C., 5% CO2 incubator. TM3 cells were placed in a 96-well plate at a density of 3×10^4 cells/mL and divided into 6 groups: control group, H2O2 group, CYCSE group, ERK inhibitor ([…] group, AKT inhibitor ([…] group, and sildenafil group. After the two inhibitors were pretreated for 1 […] was added and processed for 24 h, and 0.4 mM H2O2 was added and processed for 2 h. The TM3 cells or the MCECs were placed in 6-well plates, and the CYCSE was added to process for 24 h and 0.4 mM H2O2 to process for 2 h. The cells were collected and washed twice with PBS, wherein supernatant was discarded. The testicular tissue in liquid nitrogen was ground into powder. 200 μL of RIPM lysis solution (containing 1% PMSF) was added to each of the above samples to lyse on ice for 30 min and centrifuge at 12000 r for 10 min at 4° C., wherein supernatant was stored at -20° C. for later use. A BCA protein content detection kit was used to determine protein content in the samples and to adjust protein concentration to the same level. An equal volume of 2× loading buffer was added to an appropriate amount of the extracted protein sample, which was mixed well, boiled for 10 min, and stored at -20° C. […]
# [3] = system: kidney-yang deficiency rats; assay: Body weight, organ weight and routine indicators in hydrocortisone-induced kidney-yang deficiency rat model; type: in vivo, SD rats; conditions: HCT 10 d + 4.4 mg/kg sildenafil 10 d
# Experimental: SD rats were randomly divided into 5 groups with 10 rats in each group. The SD rats were fed with 25 mg/kg hydrocortisone (HCT) for 10 days to construct a kidney-yang deficiency model, and then gave different concentrations of the CYCSE for 10 days. Specific groups were as follows: control group (distilled water 20 d); kidney-yang deficiency group (HCT 10 d+distilled water 10 […] low-concentration group (HCT 10 d+60 mg/kg […] high-concentration group (HCT 10 d+80 mg/kg […]); sildenafil group (HCT 10 d+4.4 mg/kg sildenafil 10 d). After treatment, the rats were anesthetized by intraperitoneal injection of 3% sodium pentobarbital.
# NO/cGMP signal pathway = assay: ELISA of iNOS and cGMP in kidney-yang deficiency rats; type: in vivo, SD rats; conditions: CYCSE 60, 80 mg/kg; sildenafil 4.4 mg/kg; vs model group
# Experimental: SD rats were randomly divided into 5 groups with 10 rats in each group. The SD rats were fed with 25 mg/kg hydrocortisone (HCT) for 10 days to construct a kidney-yang deficiency model, and then gave different concentrations of the CYCSE for 10 days. Specific groups were as follows: control group (distilled water 20 d); kidney-yang deficiency group (HCT 10 d+distilled water 10 […] low-concentration group (HCT 10 d+60 mg/kg […] high-concentration group (HCT 10 d+80 mg/kg […]); sildenafil group (HCT 10 d+4.4 mg/kg sildenafil 10 d). After treatment, the rats were anesthetized by intraperitoneal injection of 3% sodium pentobarbital. After the animal was anesthetized, blood was taken from the celiac artery and spontaneously coagulated for 25 min, and centrifuged at 2500 rpm/min for 10 min at 4° C. Supernatant was collected, namely serum samples. Contents of inducible nitric oxide synthase (iNOS), cyclic guanosine phosphate (cGMP) and testosterone in serum were detected according to instructions of rat ELISA test kit (BPRO, Shanghai, China).
# [4] = system: testis tissue of kidney-yang deficiency rats; assay: Testicular tissue morphology (HE staining) in kidney-yang deficiency rats; type: in vivo, SD rats; conditions: HCT 10 d + 4.4 mg/kg sildenafil 10 d
# Experimental: (§1) SD rats were randomly divided into 5 groups with 10 rats in each group. The SD rats were fed with 25 mg/kg hydrocortisone (HCT) for 10 days to construct a kidney-yang deficiency model, and then gave different concentrations of the CYCSE for 10 days. Specific groups were as follows: control group (distilled water 20 d); kidney-yang deficiency group (HCT 10 d+distilled water 10 d); CYCSE low-concentration group (HCT 10 d+60 mg/kg CYCSE 10 d); CYCSE high-concentration group (HCT 10 d+80 mg/kg CYCSE 10 d); sildenafil group (HCT 10 d+4.4 mg/kg sildenafil 10 d). After treatment, the rats were anesthetized by intraperitoneal injection of 3% sodium pentobarbital.
# (§2) Cavernosum tissue and testicular tissue were fixed in 4% paraformaldehyde, and then embedded in paraffin and sectioned. Testicular tissue sections were stained with hematoxylin-eosin method and Masson method respectively. Cavernosum tissue sections were stained with hematoxylin-eosin method. The testicular tissue sections were processed by immunohistochemistry, and testicular leydig cells were labeled with 3β-HSD antibody. A Nikon posture microscope was used to take photos.
# testicular leydig cells = assay: Immunohistochemistry of testicular leydig cells (3β-HSD); type: in vivo, SD rats; set-up: key: negative (−); weakly positive (+); ranging from negative (−) to weakly positive (+) to strong positive (+++); strong positive (+++); conditions: HCT 10 d + 4.4 mg/kg sildenafil 10 d
# Experimental: as §1, §2
# [5] = system: sperm of kidney-yang deficiency rats; assay: Sperm count and vitality check; type: in vivo, SD rats; conditions: HCT 10 d + 4.4 mg/kg sildenafil 10 d
# Experimental: SD rats were randomly divided into 5 groups with 10 rats in each group. The SD rats were fed with 25 mg/kg hydrocortisone (HCT) for 10 days to construct a kidney-yang deficiency model, and then gave different concentrations of the CYCSE for 10 days. Specific groups were as follows: control group (distilled water 20 d); kidney-yang deficiency group (HCT 10 d+distilled water 10 […] low-concentration group (HCT 10 d+60 mg/kg […] high-concentration group (HCT 10 d+80 mg/kg […]); sildenafil group (HCT 10 d+4.4 mg/kg sildenafil 10 d). After treatment, the rats were anesthetized by intraperitoneal injection of 3% sodium pentobarbital. At the end of administration, epididymis samples were collected, excess tissue was removed, and blood was washed away with saline. The samples were fixed with tweezers, so as to cut a tail side of the epididymis longitudinally. The sperm was released in a petri dish containing PBS, and a hemocytometer was used to detect number and viability of the sperm under a microscope after waiting at room temperature for 10 minutes (sperm viability is divided into 4 levels: a) move forward rapidly in a straight line, b) move forward slowly in a straight line, c) move locally, d) no move).
# [6] = system: primary cavernous endothelial cells (MCECs); assay: CCK8 cell viability of H2O2 damaged MCECs; type: cell-based, C57BL/6 mice; conditions: CYCSE 31.3 and 62.5 μg/mL or sildenafil 24 h, then 0.4 mM H2O2 2 h; dose-dependent
# Description: Eight-week-old C57BL/6J mice were sacrificed by cutting necks. Lower abdomen was sterilized with alcohol cotton balls, a lower abdomen incision was made with tweezers and surgical scissors, and the abdominal fascia and foreskin glands were peeled off to expose cavernosum tissue. The cavernosum tissue was separated with surgical scissors and placed in Hank's balanced salt solution containing 10% penicillin-streptomycin, and urethra and neurovascular bundles were removed under microscope to obtain clean cavernosum tissue. The obtain tissue was washed 3 times in PSB containing 10% penicillin-streptomycin, cut into small pieces of 1-2 mm^3 with surgical scissors, and placed at bottoms of a pre-cooled 24-well plate with 2 pieces in each well. Each well was supplemented with 200 μL Matrigel containing 50 ng/mL VEGF-A. The MCECs were cultured in a simulated 3D environment to induce proliferation. Then the MCECs were incubate in a 37° C., 5% CO2 incubator for 14 days until the bottoms of the wells were full. After aspirating the medium, 200 μL Dispase was added to each well for digestion in the incubator for 1 h, and an equal volume of 10 mM EDTA was added to stop the digestion. […] A microplate reader was used to measure absorbance at 450 nm and calculate the cell viability.
compound,measurement,setting,value
C[C@@H]1CC[C@@]2(OC1)O[C@H]1C[C@H]3[C@@H]4CC=C5C[C@@H](O)CC[C@]5(C)[C@H]4CC[C@]3(C)[C@H]1[C@@H]2C [diosgenin],Erectile latency,[1],shorten
same,MDA content in testicular tissues,[1],reduce
same,Organ coefficient of reproductive organs and immune organs,[1],improve
same,SOD activity in testicular tissues,[1],increase
same,Sperm quality,[1],improve
COc1cccc(-c2cc(=O)c3ccccc3o2)c1N [PD98059],Effect of inhibitor on the protective effect of CYCSE on TM3 cell viability,TM3 cells,significantly block the protective effect
same,CYCSE-induced increase of p-ERK/ERK and p-AKT/AKT in TM3 cells with inhibitor,[2],significantly down-regulated
CCCc1nn(C)c2c(=O)[nH]c(-c3cc(S(=O)(=O)N4CCN(C)CC4)ccc3OCC)nc12 [Sildenafil],Body weight,[3],329.37 ± 10.82 g
same,Epididymal weight,[3],0.85 ± 0.01 g
same,Testicular weight,[3],3.03 ± 0.06 g
same,cGMP content,NO/cGMP signal pathway,no significant difference between the sildenafil group and the high concentration group
same,iNOS content,NO/cGMP signal pathway,no significant difference between the sildenafil group and the high concentration group
same,Diameter of seminiferous tubules,[4],357.61 ± 8.03 μm
same,Germinal cell layer thickness,[4],72.50 ± 5.47 μm
same,Immunoexpression of 3β-HSD (testicular leydig cells),testicular leydig cells,+
same,Sperm number,[5],4.63 ± 0.56^Δ *10^6/mL
same,Sperm motility a,[5]; grade a,17.67 ± 2.05^Δ %
same,Sperm motility a + b,[5]; grades a + b,37.67 ± 2.05^ΔΔ %
same,Cell viability of oxidation-damaged MCECs,[6],no salvage effect
